Measurements reported in patent US10669296B2, “LXR agonists and uses thereof” (Rgenix, Inc., priority 2014, dated 2020).

Legend:
[1] = tested on: ApoE; test: ApoE gene expression analysis by qRT-PCR in MeWo cancer cells; type: cell-based; details: Homo sapiens, MeWo, 48 h; for Emax at 1 µM / Emax at 10 µM: read-out: ApoE gene expression in relation to GW3965 at 1 μM (100%)
Protocol: Cancer cells (MeWo) were treated in presence of drug or control (DMSO) at indicated concentrations for 48 h. RNA was extracted from whole cell lysates using the Total RNA Purification Kit (17200, Norgen, Thorold, Canada). 600 ng of total RNA was then reverse transcribed into cDNA using the Verso cDNA Synthesis Kit (AB-1453/B, Fisher Scientific). 6 ng of the resulting cDNA was then mixed with SYBR green PCR Master Mix (4309155, Applied Biosystems) and the appropriate primers. Each reaction was performed in quadruplicate, and mRNA expression was quantified by performing real-time PCR amplification using a StepOne Plus Real-Time PCR System (Applied Biosystems). GAPDH was used as an endogenous control for normalization. EC50 values were calculated using Prism6 software and plotting expression values versus drug concentration. The following primers were used: [table] The results are shown in relation to GW3965 ApoE expression at 1 μM (i.e. 100%).

[2] = tested on: Cancer cells (MeWo); test: Matrigel invasion assay; type: cell-based; details: 1 μM drug, invasion 24 h
Protocol: Cancer cells (MeWo) were pre-treated in presence of 1 μM drug or control (DMSO) for 72 h after which cancer cells were switched to serum-starvation in 0.2% FBS DMEM-based media for 16 h in the presence of the drug or control, respectively. Trans-well invasion chambers (354480, BD Biosciences, Bedford, Mass.) were pre-equilibrated in DMEM-based media prior to the beginning of the assay by adding 0.5 ml of starvation media to the top and bottom chambers. After 30 min, the media in the top chamber was removed, and 0.5 ml of media containing 1×10^5 cancer cells in the presence of the drug, was added into each matrigel-coated trans-well insert. Cells were allowed to invade through the matrigel-coated inserts for 24 h at 37° C.

In the case of O=C(Cc1cccc(OCCCN(Cc2cccc(C(F)(F)F)c2Cl)CC(c2ccccc2)c2ccccc2)c1)NO [Compound 1, 2-{3-[3-({[2-chloro-3-(trifluoromethyl)phenyl]methyl}(2,2-diphenylethy)amino)propoxy]phenyl}-N-hydroxyacetamide], the EC50 [1] is reported as < 1000 nM, the Emax at 1 µM [1] is reported as > 80% and the Emax at 10 µM [1] is reported as < 40%. The “% of Cells Migrated Compared to Control” value [2] was <95%.
For C[C@H](CCOc1cc(F)c(CO)c(S(C)(=O)=O)c1)N(Cc1cccc(C(F)(F)F)c1Cl)CC(c1ccccc1)c1ccccc1 [Compound 9, {4-[(3R)-3-({[2-chloro-3-(trifluoromethyl)phenyl]methyl}(2,2-diphenylethyl)amino)butoxy]-2-fluoro-6-methanesulfonylphenyl}methanol], the EC50 [1] was < 300 nM, the Emax at 1 µM [1] was > 40% and the Emax at 10 µM [1] was > 80%. For the same compound, the “% of Cells Migrated Compared to Control” value [2] was <50%.
For CS(=O)(=O)c1cc(OCCCN(Cc2cccc(C(F)(F)F)c2F)CC(c2ccccc2)c2ccccc2)cc(F)c1CO [Compound 72, (4-{3-[(2,2-diphenylethyl)({[2-fluoro-3-(trifluoromethyl)phenyl]methyl})amino]propoxy}-2-fluoro-6-methanesulfonylphenyl)methanol], the Emax at 1 µM [1] was > 80% and the Emax at 10 µM [1] was > 80%.
For CS(=O)(=O)c1cc(OCCCN(Cc2cccc(C(F)(F)F)c2)CC(c2ccccc2)c2ccccc2)cc(F)c1CO [Compound 73, (4-{3-[(2,2-diphenylethyl)({[3-(trifluoromethyl)phenyl]methyl})amino]propoxy}-2-fluoro-6-methanesulfonylphenyl)methanol], the Emax at 1 µM [1] was > 80% and the Emax at 10 µM [1] was > 80%.
With CS(=O)(=O)c1cc(OCCCN(Cc2cccc(OC(F)(F)F)c2)CC(c2ccccc2)c2ccccc2)cc(F)c1CO [Compound 74, (4-{3-[(2,2-diphenylethyl)({[3-(trifluoromethoxy)phenyl]methyl})amino]propoxy}-2-fluoro-6-methanesulfonylphenyl)methanol] the Emax at 1 µM [1] was > 40% and the Emax at 10 µM [1] was > 40%.
In the case of CS(=O)(=O)c1cc(OCCCN(Cc2ccc(F)c(C(F)(F)F)c2)CC(c2ccccc2)c2ccccc2)cc(F)c1CO [Compound 75, (4-{3-[(2,2-diphenylethyl)({[4-fluoro-3-(trifluoromethyl)phenyl]methyl})amino]propoxy}-2-fluoro-6-methanesulfonylphenyl)methanol], the Emax at 1 µM [1] is reported as > 40% and the Emax at 10 µM [1] is reported as > 80%.
For CS(=O)(=O)c1cc(OCCCN(Cc2cccc(C(F)(F)F)c2Cl)CC(c2ccccc2)C2CCCCC2)cc(F)c1CO (centres unmarked) [Compound 78, {4-[3-({[2-chloro-3-(trifluoromethyl)phenyl]methyl}(2-cyclohexyl-2-phenylethyl)amino)propoxy]-2-fluoro-6-methanesulfonylphenyl}methanol], the Emax at 1 µM [1] was > 40%.
C[C@@H](CN(CCCOc1cc(F)c(CO)c(S(C)(=O)=O)c1)Cc1cccc(C(F)(F)F)c1Cl)c1ccccc1 [Compound 79, {4-[3-({[2-chloro-3-(trifluoromethyl)phenyl]methyl}[(2R)-2-phenylpropyl]amino)propoxy]-2-fluoro-6-methanesulfonylphenyl}methanol] was tested, and the EC50 [1] was < 1000 nM, the Emax at 1 µM [1] was > 80% and the Emax at 10 µM [1] was > 80%.
For C[C@H](CN(CCCOc1cc(F)c(CO)c(S(C)(=O)=O)c1)Cc1cccc(C(F)(F)F)c1Cl)c1ccccc1 [Compound 80, {4-[3-({[2-chloro-3-(trifluoromethyl)phenyl]methyl}[(2S)-2-phenylpropyl]amino)propoxy]-2-fluoro-6-methanesulfonylphenyl}methanol], the EC50 [1] was < 1000 nM, the Emax at 1 µM [1] was > 80% and the Emax at 10 µM [1] was > 80%.
With CS(=O)(=O)c1cc(OCCCN(CCc2ccccc2)Cc2cccc(C(F)(F)F)c2Cl)cc(F)c1CO [Compound 81, {4-[3-({[2-chloro-3-(trifluoromethyl)phenyl]methyl}(2-phenylethyl)amino)propoxy]-2-fluoro-6-methanesulfonylphenyl}methanol] the EC50 [1] was < 300 nM, the Emax at 1 µM [1] was > 40% and the Emax at 10 µM [1] was > 40%.
For CC(C)(CN(CCCOc1cc(F)c(CO)c(S(C)(=O)=O)c1)Cc1cccc(C(F)(F)F)c1Cl)c1ccccc1 [Compound 82, {4-[3-({[2-chloro-3-(trifluoromethyl)phenyl]methyl}(2-methyl-2-phenylpropyl)amino)propoxy]-2-fluoro-6-methanesulfonylphenyl}methanol], the Emax at 1 µM [1] was > 40%.
With CS(=O)(=O)c1cc(OCCCN(Cc2ccccc2)Cc2cccc(C(F)(F)F)c2Cl)cc(F)c1CO [Compound 83, (4-{3-[benzyl({[2-chloro-3-(trifluoromethyl)phenyl]methyl})amino]propoxy}-2-fluoro-6-methanesulfonylphenyl) methanol] the EC50 [1] was < 1000 nM and the Emax at 1 µM [1] was > 80%.
For [2H]C([2H])(O)c1c(F)cc(OCCCN(Cc2cccc(C(F)(F)F)c2Cl)CC(c2ccccc2)c2ccccc2)cc1S(C)(=O)=O [Compound 84, {4-[3-({[2-chloro-3-(trifluoromethyl)phenyl]methyl}(2,2-diphenylethyl)amino)propoxy]-2-fluoro-6-methanesulfonylphenyl}(^2H2)methanol], the Emax at 1 µM [1] was > 40% and the Emax at 10 µM [1] was > 40%.
CC(O)c1c(F)cc(OCCCN(Cc2cccc(C(F)(F)F)c2Cl)CC(c2ccccc2)c2ccccc2)cc1S(C)(=O)=O (centres unmarked) [Compound 85, 1-{4-[3-({[2-chloro-3-(trifluoromethyl)phenyl]methyl}(2,2-diphenylethyl)amino)propoxy]-2-fluoro-6-methanesulfonylphenyl}ethan-1-ol] was tested, and the EC50 [1] was < 1000 nM and the Emax at 1 µM [1] was > 80%.
In the case of CC(=O)c1c(F)cc(OCCCN(Cc2cccc(C(F)(F)F)c2Cl)CC(c2ccccc2)c2ccccc2)cc1S(C)(=O)=O [Compound 87, 1-{4-[3-({[2-chloro-3-(trifluoromethyl)phenyl]methyl}(2,2-diphenylethyl)amino)propoxy]-2-fluoro-6-methanesulfonylphenyl}ethan-1-one], the Emax at 1 µM [1] is reported as > 40%.
In the case of CS(=O)(=O)c1cc(OCCCN(Cc2cccc(C(F)(F)F)c2Cl)CC(c2ccccc2)c2ccccc2)cc(F)c1CN [Compound 88, {4-[3-({[2-chloro-3-(trifluoromethyl)phenyl]methyl}(2,2-diphenylethyl)amino)propoxy]-2-fluoro-6-methanesulfonylphenyl}methanamine], the Emax at 1 µM [1] is reported as > 80%.
CC(=O)NCc1c(F)cc(OCCCN(Cc2cccc(C(F)(F)F)c2Cl)CC(c2ccccc2)c2ccccc2)cc1S(C)(=O)=O [Compound 89, N-({4-[3-({[2-chloro-3-(trifluoromethyl)phenyl]methyl}(2,2-diphenylethyl)amino)propoxy]-2-fluoro-6-methanesulfonylphenyl}methyl)acetamide] was tested, and the EC50 [1] was < 1000 nM, the Emax at 1 µM [1] was > 80% and the Emax at 10 µM [1] was > 80%.
CS(=O)(=O)c1cc(OCCCN(Cc2cccc(C(F)(F)F)c2Cl)CC(c2ccccc2)c2ccccc2)cc(F)c1C(N)=O [Compound 90, 4-[3-({[2-chloro-3-(trifluoromethyl)phenyl]methyl}(2,2-diphenylethyl)amino)-propoxy]-2-fluoro-6-methanesulfonylbenzamide] was tested, and the EC50 [1] was < 1000 nM and the Emax at 1 µM [1] was > 80%.
In the case of CS(=O)(=O)c1cc(OCCCN(Cc2cccc(C(F)(F)F)c2Cl)CC(c2ccccc2)c2ccccc2)cc(F)c1CCO [Compound 91, 2-{4-[3-({[2-chloro-3-(trifluoromethyl)phenyl]methyl}(2,2-diphenylethyl)amino)propoxy]-2-fluoro-6-methanesulfonylphenyl} ethan-1-ol], the Emax at 1 µM [1] is reported as > 80% and the Emax at 10 µM [1] is reported as > 40%.
In the case of CNC(=O)c1c(F)cc(OCCCN(Cc2cccc(C(F)(F)F)c2Cl)CC(c2ccccc2)c2ccccc2)cc1S(C)(=O)=O [Compound 92, 4-[3-({[2-chloro-3-(trifluoromethyl)phenyl]methyl}(2,2-diphenylethyl)amino)-propoxy]-2-fluoro-6-methanesulfonyl-N-methylbenzamide], the Emax at 1 µM [1] is reported as > 40%.
For CS(=O)(=O)c1cc(OCCCN(Cc2cccc(C(F)(F)F)c2Cl)CC(c2ccccc2)c2ccccc2)cc(F)c1C(=O)C(F)(F)F [Compound 93, 1-{4-[3-({[2-chloro-3-(trifluoromethyl)phenyl]methyl}(2,2-diphenylethyl)amino)propoxy]-2-fluoro-6-methanesulfonylphenyl}-2,2,2-trifluoroethan-1-one], the Emax at 1 µM [1] was < 40% and the Emax at 10 µM [1] was < 40%.
CS(=O)(=O)c1cc(OCCCN(Cc2cccc(C(F)(F)F)c2Cl)CC(c2ccccc2)c2ccccc2)cc(F)c1C(O)C(F)(F)F (centres unmarked) [Compound 95, 1-{4-[3-({[2-chloro-3-(trifluoromethyl)phenyl]methyl}(2,2-diphenylethyl)amino)propoxy]-2-fluoro-6-methanesulfonylphenyl}-2,2,2-trifluoroethan-1-ol] was tested, and the Emax at 1 µM [1] was > 40%.
CN(C)C(=O)c1c(F)cc(OCCCN(Cc2cccc(C(F)(F)F)c2Cl)CC(c2ccccc2)c2ccccc2)cc1S(C)(=O)=O [Compound 96, 4-[3-({[2-chloro-3-(trifluoromethyl)phenyl]methyl}(2,2-diphenylethyl)amino)propoxy]-2-fluoro-6-methanesulfonyl-N,N-dimethylbenzamide] was tested, and the Emax at 1 µM [1] was > 40%.
